Experimental data taken from US20230364007A1, “ADMINISTRATION OF A P[…]” (Reset Pharmaceuticals, Inc., priority 2022, published 2023).

What was measured:
[1] = Particle size distribution (PSD) analysis by laser diffraction; format: physicochemical; conditions: primary pressure of 4 bar, lens R1, R3 or R5 per sample
Procedure: (§1) In order to provide a small and homogeneous particle size of psychedelic compound in the final suspensions, psilocybin and psilocin were micronised before use. Micronisation was performed by wet bead milling using decafluoropentane as the antisolvent. In a glass vial, 200 mg psychedelic compound and 2 g of 1 mm silica beads were weighed. 3 mL of the antisolvent was added for psilocybin and 2 mL for psilocin. The samples were vortexed for approximately 15 seconds then milled at 530 rpm for 60 minutes.
(§2) The micronised sample was then separated from the silica beads and transferred to a petri dish and left at room temperature to allow for evaporation of the solvent overnight (approximately 18 hours). The dried sample was then collected and characterised by PSD and XRPD.
Particle size analysis was carried out, in single analysis, by laser diffraction using a Sympatec Helos particle size analyser, equipped with a RODOS dry dispersion unit and ASPIROS feeder unit. The lens and primary pressures were varied for each compound tested.

[2] = reported; cited from earlier work
[3] = Solubility in excipients (preparative work)
[4] = XRPD after micronisation; format: physicochemical; conditions: wet bead milling in decafluoropentane
Procedure: as §1, §2
X-ray powder diffraction (XRPD) analysis was carried out using a Bruker D2 Phaser powder diffractometer equipped with a LynxEye detector. The specimens were located at the centre of a silicon sample holder within a 5 mm pocket. The samples were continuously spun during data collection and scanned using a step size of 0.02° two theta (2θ) between 5° to 60° two theta, the detailed parameters are summarised in Table 10. The data was processed using Diffrac Plus EVA software (Version 3.1).

[5] = One compartment SC PK model of psilocin fitted to digitised rat SC data
Procedure: Rat SC PK data was digitised for four dose levels (Higgins, G. A. et al., 2021. “Low Doses of Psilocybin and Ketamine Enhance Motivation and Attention in Poor Performing Rats: Evidence for an Antidepressant Property”. Frontiers in Pharmacology, Volume 12, p. 299). The PK was fitted using a one compartment SC model where volume was fixed to the same as human in L/kg. The model was fit to the lower 3 doses levels as the higher dose was determined to be out of the range of investigation.
A one compartment model was used with linear absorption and clearance shown schematically in […]. Mathematically, this model is a series of two linked ordinary differential equations (ODE's) given in equations (7)-(8).
Constant ka is the absorption rate constant (units 1/h), Cl is the clearance (units mL/h), Vc is the volume of distribution of the central compartment (units mL).
It is assumed that the generation of psilocin is instantaneous once psilocybin is absorbed. Due to a lack of rat IV PK data and human and rat plasma protein binding data, total rat volume of distribution (V) on ml/kg basis was fixed to the same as human total volume of distribution. A one compartment SC model gives a satisfactory fit to the absorption phase, seen in FIG. 5, this gives good confidence of the fitted ka value seen in Table 2. Bioavailability was again assumed to be 1.

[6] = Two-compartment IV bolus PK model fitted to published human psilocybin IV data; conditions: psilocin after 1 mg psilocybin IV
Procedure: All analysis was performed using the software R and RStudio, with models being defined using analytical and ODE solutions.
Derivation of system PK parameters for psilocybin/psilocin Systemic PK parameters were derived for published human bolus psilocybin IV data.
Human IV PK data for psilocin after psilocybin was administered was taken from Hasler et al. “Determination of psilocin and 4-hydroxyindole-3-acetic acid in plasma by HPLC-ECD and pharmacokinetic profiles of oral and intravenous psilocybin in man”. Pharm Acta Helv. 1997 June; 72(3):175-84. Model selection was performed by assessing visual fit to data and the respective model AIC's of a one compartment and two compartment IV PK model. These systemic human PK parameters were then used for human […] injection simulations by simulating the PK profiles over a range of doses and absorption rates.
It is assumed that the generation of psilocin is instantaneous and complete once psilocybin is absorbed.
An IV two compartment model best described the IV data from FIG. 2. A two-compartment model gave a good description of the raw data capturing the Cmax and terminal phase well, FIG. 3. The systemic PK parameters can be seen in Table 1 and there are low errors in the parameter estimates.

[7] = Human simulations of psilocin exposure after SC administration; conditions: from absorption rate of rat SC model
Procedure: The model that was used is shown schematically in FIG. 6, mathematically the analytical solution is shown in equations (9)-(14).
Using the absorption rate from modelling the rat SC data and the human systemic psilocin PK parameters, human SC simulations were run over 1-12 mg doses and the simulated PK profiles can be seen in FIG. 7. […] These profiles can be seen in FIG. 8, with the summary statistics in Table 4.

[8] = psilocin after SC psilocybin, rat, fit to 0.05, 0.1, 1 mg/kg

CN(C)CCc1c[nH]c2cccc(OP(=O)(O)O)c12 [Micronised psilocybin]
D10 [1]: 0.45 μm | D50 [1]: 1.20 μm

CN(C)CCc1c[nH]c2cccc(OP(=O)(O)O)c12 [psilocybin, [3-(2-dimethylaminoethyl)-1H-indol-4-yl] dihydrogen phosphate]
bioavailability [2]: approximately 50% | solubility in all the excipients tested ([3]; non-micronised, 20 excipients): poor | chemical degradation upon micronisation (XRPD) [4]: no significant chemical degradation upon micronisation

CN(C)CCc1c[nH]c2cccc(O)c12 [psilocin, 4-hydroxy-N,N-dimethyltryptamine]
dose normalised AUC ([5]; 10 mg/kg SC psilocybin dose in rats versus other doses (not shown)): considerably greater than the other doses | Cl (95% CI) [5, 8]: 2490 (2260, 2710) mL/h | ka, absorption rate constant (95% CI) [5, 8]: 2.32 (2.03, 2.61) /h | V ([5]; rat, fixed to human total volume of distribution on ml/kg basis): 1746 (Fixed) mL | Cl, clearance (95% CI) [6]: 3810 (3340, 4290) ml/min | V, volume of distribution of the central compartment (95% CI) [6]: 88600 (77300, 99900) ml | k12 (95% CI) [6]: 0.176 (0.144, 0.208) /min | k21 (95% CI) [6]: 0.0489 (0.0388, 0.0591) /min | absorption half-life [7]: 17.9 min | solubility versus pH ([3]; initial solution trials): higher solubility at acidic pH | solubility in DMSO and NMP ([3]; non-micronised): good | chemical degradation upon micronisation (XRPD) [4]: no significant chemical degradation upon micronisation

CN(C)CCc1c[nH]c2cccc(O)c12 [Micronised psilocin]
D10 [1]: 0.44 μm
